Test results: patent US20250302972A1, “FORMULATION” (ENA Respiratory Pty Ltd, priority 2021, published 2025)

Experiments:
human TLR2 (hTLR2) = biological target: T1, human TLR2 (hTLR2) (Homo sapiens, UniProt O60603); experiment: Activation of human TLR2 IV: HEK-BLUE-hTLR2 cells; assay type: cell-based; details: FIG. 4
T1 construct: host or cells: HEK293 (HEK-BLUE-hTLR2)
Experimental: HEK-BLUE-hTLR2 cells are designed for studying the stimulation of human TLR2 (hTLR2) by monitoring the activation of NF-kB. HEK-BLUE-hTLR2 cells are obtained by co-transfection of the hTLR2 and SEAP (secreted embryonic alkaline phosphatase) reporter genes into HEK293 cells. Stimulation with a TLR2 ligand activates NF-kB which induces the production of SEAP.
HEK-BLUE-hTLR2 cells were purchased from InvivoGen (San Diego, CA, USA). Cells were grown in DMEM supplemented with 10% FCS, 100 U/ml penicillin, 100 ug/ml streptomycin and 2 mM L-glutamine, 100 μg/mL Normocin in the presence of selection antibiotic purchased from InvivoGen and passaged when 70% confluence was reached per manufacturer's recommendation. […]

[1] = Stability IV: formulation pH at each time point; assay type: physicochemical
Experimental: Each compound was formulated in 0.9% w/w saline with addition of 0.1% w/w EDTA at about pH 5. The formulations were stored in the dark under accelerated conditions (40° C./75% RH) and reference formulations were stored at −80° C. At days 0, 9 and 28, samples were analysed by UHPLC and pH was measured.
The remaining ˜1 mL of solution in the clear glass HPLC vials was stored at 40° C./75% RH and was used to measure pH at each time point.
The formulation pH data recorded at each time point are compiled in Table 19. There was a general trend for the pH to increase with time but the effect was not pronounced.

[2] = Solubility in deionised water; assay type: physicochemical; details: DI water; read-out: concentration at which fully soluble in deionised (DI) water
Experimental: All spray drying feed solutions were prepared in deionised (DI) water. […] All other excipient components (mannitol, trehalose and HPMC) were also shown readily soluble in the DI water.

SARS-CoV-2 [3] = experiment: A204 efficacy against SARS-CoV-2 in the hamster model - prophylaxis; assay type: in vivo
SARS-CoV-2 [4] = experiment: A204 efficacy against SARS-CoV-2 in the hamster model - treatment; assay type: in vivo; details: 10 ug/ml in 100 ul, 8 hours post infection; to 7 dpi

T1 sequence (O60603 21-784): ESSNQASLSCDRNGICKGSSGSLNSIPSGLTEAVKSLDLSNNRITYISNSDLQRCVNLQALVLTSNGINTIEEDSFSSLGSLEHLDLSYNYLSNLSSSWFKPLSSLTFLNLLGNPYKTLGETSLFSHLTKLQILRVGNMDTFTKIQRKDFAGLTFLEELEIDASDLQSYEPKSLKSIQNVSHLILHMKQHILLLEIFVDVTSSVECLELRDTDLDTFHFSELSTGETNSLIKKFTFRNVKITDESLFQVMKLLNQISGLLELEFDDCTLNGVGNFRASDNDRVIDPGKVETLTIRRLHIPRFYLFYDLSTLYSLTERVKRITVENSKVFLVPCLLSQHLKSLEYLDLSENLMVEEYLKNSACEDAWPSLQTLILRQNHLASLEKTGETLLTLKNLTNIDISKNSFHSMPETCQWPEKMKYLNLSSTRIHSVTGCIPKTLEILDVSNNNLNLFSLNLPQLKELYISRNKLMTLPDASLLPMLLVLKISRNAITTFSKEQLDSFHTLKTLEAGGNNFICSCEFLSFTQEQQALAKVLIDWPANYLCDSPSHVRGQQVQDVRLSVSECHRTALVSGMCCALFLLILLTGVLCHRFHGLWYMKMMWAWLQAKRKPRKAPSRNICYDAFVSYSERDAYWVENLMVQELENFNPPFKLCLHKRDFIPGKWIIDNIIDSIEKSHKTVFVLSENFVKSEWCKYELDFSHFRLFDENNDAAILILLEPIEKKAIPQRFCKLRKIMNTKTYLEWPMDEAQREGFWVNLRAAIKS
T1 sequence (Q9Y2C9 32-796 partner): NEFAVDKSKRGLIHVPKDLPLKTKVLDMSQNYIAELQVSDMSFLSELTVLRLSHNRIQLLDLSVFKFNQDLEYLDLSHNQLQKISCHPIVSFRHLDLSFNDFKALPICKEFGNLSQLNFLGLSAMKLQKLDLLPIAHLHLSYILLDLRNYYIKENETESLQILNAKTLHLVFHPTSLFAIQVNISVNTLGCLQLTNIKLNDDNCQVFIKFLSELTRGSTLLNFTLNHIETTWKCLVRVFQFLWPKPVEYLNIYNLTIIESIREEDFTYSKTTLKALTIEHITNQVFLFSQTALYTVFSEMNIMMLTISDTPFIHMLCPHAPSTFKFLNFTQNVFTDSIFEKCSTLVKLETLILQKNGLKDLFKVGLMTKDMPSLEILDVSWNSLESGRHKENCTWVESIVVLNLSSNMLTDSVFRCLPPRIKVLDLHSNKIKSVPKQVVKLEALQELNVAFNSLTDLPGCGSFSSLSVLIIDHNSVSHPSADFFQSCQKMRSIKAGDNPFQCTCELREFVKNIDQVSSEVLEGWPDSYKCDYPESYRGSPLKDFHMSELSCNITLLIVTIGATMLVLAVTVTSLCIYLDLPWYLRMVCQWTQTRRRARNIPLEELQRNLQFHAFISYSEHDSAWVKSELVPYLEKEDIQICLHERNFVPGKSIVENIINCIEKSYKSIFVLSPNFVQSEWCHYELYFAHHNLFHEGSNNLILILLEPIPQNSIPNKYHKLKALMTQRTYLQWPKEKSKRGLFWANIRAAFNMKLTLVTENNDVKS

Structure (SMILES): CCCCCCCCCCCCCCCC(=O)OCC[C@H](CSC[C@H](N)C(=O)N[C@@H](CO)C(=O)NCCOCCOCCOCCOCCOCCOCCOCCOCCOCCOCCOCCOCCOCCOCCOCCOCCOCCOCCOCCOCCOCCOCCOCCOCCOCCOCCOCCOCCC(=O)NCC(N)=O)OC(=O)CCCCCCCCCCCCCCC [A204]
- activity at TLR2 (human TLR2 (hTLR2)): significant activity at TLR2
- formulation pH ([1]; 0-days): 5.0
- formulation pH ([1]; 9-days, 40° C./75% RH): 5.2
- formulation pH ([1]; 28-days, 40° C./75% RH): 5.2
- solubility [2]: ≤ 2000 µg/mL
- weight change during infection (SARS-CoV-2 [3]; 50 ug/ml in 100 ul intranasal 24 hours prior to infection): lost no weight
- lung viral loads versus mock treated animals (SARS-CoV-2 [3]; 7 dpi): slightly lower
- viral RNA level versus mock treated animals (fold lower) (SARS-CoV-2 [3]; throat swabs, 2 days post infection, RT-qPCR): 32 fold
- recovery of weight loss (SARS-CoV-2 [4]): recovered weight loss more rapidly than PBS treated
